{"source": "patent US10168342B2", "about": "“Lipid probes and uses thereof” (THE SCRIPPS RESEARCH INSTITUTE, priority 2015, dated 2019)", "key": {"[1]": {"molecular_target": "T1, AEA-DA lipid probe targets in Neuro2a cells (Mus musculus, UniProt P16014)", "T1 sequence (P16014 21-677)": "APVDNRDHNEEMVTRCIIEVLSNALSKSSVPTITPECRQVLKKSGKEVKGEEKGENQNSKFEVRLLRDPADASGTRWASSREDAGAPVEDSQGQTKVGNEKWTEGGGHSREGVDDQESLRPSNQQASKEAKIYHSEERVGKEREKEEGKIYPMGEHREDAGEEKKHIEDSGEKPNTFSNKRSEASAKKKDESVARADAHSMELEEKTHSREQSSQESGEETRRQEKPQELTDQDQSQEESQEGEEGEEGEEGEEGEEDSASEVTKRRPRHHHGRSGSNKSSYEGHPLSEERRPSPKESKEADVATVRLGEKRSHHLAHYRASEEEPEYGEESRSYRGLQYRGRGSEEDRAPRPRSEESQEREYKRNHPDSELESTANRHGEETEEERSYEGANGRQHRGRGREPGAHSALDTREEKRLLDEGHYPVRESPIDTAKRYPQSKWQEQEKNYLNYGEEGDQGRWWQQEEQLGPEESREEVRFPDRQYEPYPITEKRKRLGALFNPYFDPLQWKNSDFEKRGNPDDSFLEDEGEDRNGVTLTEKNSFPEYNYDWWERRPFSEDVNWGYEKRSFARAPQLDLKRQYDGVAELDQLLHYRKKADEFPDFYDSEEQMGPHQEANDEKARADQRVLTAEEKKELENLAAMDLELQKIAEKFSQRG"}, "[2]": {"molecular_target": "AEA-DA lipid probe targets in Neuro2a cells (Mus musculus, UniProt Q9DBC7)", "sequence (Q9DBC7 whole entry)": "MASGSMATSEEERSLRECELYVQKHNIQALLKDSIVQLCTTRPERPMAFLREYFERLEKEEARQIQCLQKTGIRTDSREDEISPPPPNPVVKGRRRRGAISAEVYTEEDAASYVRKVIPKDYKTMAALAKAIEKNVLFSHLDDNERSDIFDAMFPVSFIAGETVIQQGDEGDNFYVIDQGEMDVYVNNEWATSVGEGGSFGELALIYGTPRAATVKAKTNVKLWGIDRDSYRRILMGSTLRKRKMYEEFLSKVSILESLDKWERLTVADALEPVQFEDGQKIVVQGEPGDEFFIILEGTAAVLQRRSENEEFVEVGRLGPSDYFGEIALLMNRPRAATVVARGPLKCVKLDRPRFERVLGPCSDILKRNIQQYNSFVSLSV"}, "[3]": {"molecular_target": "T2, AEA-DA lipid probe targets in Neuro2a cells (Mus musculus, UniProt P46638)", "T2 sequence (P46638 1-218)": "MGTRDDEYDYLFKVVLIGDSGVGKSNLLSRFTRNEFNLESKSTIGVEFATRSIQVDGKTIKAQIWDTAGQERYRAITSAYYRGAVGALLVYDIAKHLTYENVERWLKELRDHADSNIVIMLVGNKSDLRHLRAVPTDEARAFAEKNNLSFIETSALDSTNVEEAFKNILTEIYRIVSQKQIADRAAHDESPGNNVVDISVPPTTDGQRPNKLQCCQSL"}, "[4]": {"molecular_target": "AEA-DA lipid probe targets in Neuro2a cells (Mus musculus, UniProt Q8VIK2)", "sequence (Q8VIK2 whole entry)": "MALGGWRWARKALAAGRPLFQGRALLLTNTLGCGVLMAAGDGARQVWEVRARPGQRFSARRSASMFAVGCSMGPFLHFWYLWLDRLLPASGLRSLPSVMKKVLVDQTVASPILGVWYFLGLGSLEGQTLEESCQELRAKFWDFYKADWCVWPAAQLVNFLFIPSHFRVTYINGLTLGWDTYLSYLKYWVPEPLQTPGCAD"}, "[5]": {"molecular_target": "T3, AEA-DA lipid probe targets in Neuro2a cells (Mus musculus, UniProt P10649)", "T3 sequence (P10649 1-218)": "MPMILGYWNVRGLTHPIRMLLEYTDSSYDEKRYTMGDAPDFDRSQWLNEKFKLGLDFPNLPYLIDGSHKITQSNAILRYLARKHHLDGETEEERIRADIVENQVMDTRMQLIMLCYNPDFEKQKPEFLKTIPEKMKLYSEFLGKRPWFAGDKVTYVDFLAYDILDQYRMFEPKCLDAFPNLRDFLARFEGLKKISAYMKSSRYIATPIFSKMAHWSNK"}, "[6]": {"molecular_target": "AEA-DA lipid probe targets in Neuro2a cells (Mus musculus, UniProt Q91VE6)", "sequence (Q91VE6 whole entry)": "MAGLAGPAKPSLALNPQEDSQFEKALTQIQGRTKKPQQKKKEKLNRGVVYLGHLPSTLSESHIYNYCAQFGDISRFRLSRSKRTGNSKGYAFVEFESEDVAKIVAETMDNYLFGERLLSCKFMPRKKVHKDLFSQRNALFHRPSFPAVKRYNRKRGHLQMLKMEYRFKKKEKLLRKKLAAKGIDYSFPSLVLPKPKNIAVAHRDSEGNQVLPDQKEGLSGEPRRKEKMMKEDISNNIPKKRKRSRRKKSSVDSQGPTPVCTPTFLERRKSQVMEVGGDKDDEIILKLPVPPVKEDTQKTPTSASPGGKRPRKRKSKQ"}, "[7]": {"molecular_target": "T4, AEA-DA lipid probe targets in Neuro2a cells (Mus musculus, UniProt Q9D1D4)", "T4 sequence (Q9D1D4 32-219)": "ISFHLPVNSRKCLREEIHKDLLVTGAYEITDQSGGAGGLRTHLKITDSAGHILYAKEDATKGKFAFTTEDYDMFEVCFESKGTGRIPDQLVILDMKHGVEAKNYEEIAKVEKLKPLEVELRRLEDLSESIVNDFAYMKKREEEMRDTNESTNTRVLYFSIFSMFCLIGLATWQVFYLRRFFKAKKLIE"}, "[8]": {"molecular_target": "T5, AEA-DA lipid probe targets in Neuro2a cells (Mus musculus, UniProt Q8BIJ6)", "T5 sequence (Q8BIJ6 49-1012)": "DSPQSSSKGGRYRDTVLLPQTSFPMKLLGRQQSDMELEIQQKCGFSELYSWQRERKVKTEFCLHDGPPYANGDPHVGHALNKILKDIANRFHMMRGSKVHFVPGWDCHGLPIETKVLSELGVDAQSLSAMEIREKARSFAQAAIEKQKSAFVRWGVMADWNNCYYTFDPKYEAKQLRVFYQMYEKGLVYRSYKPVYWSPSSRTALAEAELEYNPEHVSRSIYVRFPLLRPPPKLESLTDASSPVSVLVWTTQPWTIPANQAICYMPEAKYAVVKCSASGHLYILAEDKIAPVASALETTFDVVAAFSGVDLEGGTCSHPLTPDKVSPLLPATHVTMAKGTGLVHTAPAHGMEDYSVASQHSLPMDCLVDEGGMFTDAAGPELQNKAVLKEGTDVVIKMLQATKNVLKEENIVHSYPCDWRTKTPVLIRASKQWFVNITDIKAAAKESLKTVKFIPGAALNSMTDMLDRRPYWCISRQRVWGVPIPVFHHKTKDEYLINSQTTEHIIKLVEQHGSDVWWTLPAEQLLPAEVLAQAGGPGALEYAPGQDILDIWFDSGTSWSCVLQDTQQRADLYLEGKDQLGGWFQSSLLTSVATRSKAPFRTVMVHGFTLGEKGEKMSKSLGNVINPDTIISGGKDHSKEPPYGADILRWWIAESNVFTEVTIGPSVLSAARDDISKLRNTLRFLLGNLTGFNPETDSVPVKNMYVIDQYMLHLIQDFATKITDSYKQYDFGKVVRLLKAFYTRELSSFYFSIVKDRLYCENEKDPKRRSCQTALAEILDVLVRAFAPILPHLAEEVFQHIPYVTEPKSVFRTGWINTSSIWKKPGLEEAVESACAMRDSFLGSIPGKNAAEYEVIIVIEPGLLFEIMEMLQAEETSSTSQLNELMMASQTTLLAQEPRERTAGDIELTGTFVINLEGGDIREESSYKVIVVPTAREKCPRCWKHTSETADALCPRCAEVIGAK", "settings": "protein Iars2, Neuro2a cells"}}, "note": "Read-outs that look alike come from different tables or passages of the source."}
{"smiles": "CCCCC/C=C\\C/C=C\\C/C=C\\C/C=C\\CCCC(=O)NCCO", "note": "[AEA, anandamide, reference compound]", "values": [{"measurement": "SILAC ratio Chgb", "setting": "[1]; competitor 200 μM", "result": 1.2}, {"measurement": "SILAC ratio, Prkar1a", "setting": "[2]; competitor 200 μM", "result": 1.2}, {"measurement": "SILAC ratio, Rab11b", "setting": "[3]; competitor 200 μM", "result": 1.6}, {"measurement": "SILAC ratio Mpv17l2", "setting": "[4]; competitor 200 μM", "result": 1.3}, {"measurement": "SILAC ratio, Gstm1", "setting": "[5]; competitor 200 μM", "result": 2.3}, {"measurement": "SILAC ratio Mki67ip", "setting": "[6]; competitor 200 μM", "result": 1.4}, {"measurement": "SILAC ratio, Tmed10", "setting": "[7]; competitor 200 μM", "result": 1.5}, {"measurement": "SILAC ratio (AEA-DA competition)", "setting": "[8]; competitor 200 μM", "result": 0.9}]}
{"smiles": "C=CCN(C)CCCCCCOc1ccc(C(=O)c2ccc(Br)cc2)c(F)c1", "note": "[Ro 48-8071, reference compound]", "values": [{"measurement": "SILAC ratio Chgb", "setting": "[1]; competitor 25 μM", "result": 0.7}, {"measurement": "SILAC ratio, Prkar1a", "setting": "[2]; competitor 25 μM", "result": 1.0}, {"measurement": "SILAC ratio, Rab11b", "setting": "[3]; competitor 25 μM", "result": 1.3}, {"measurement": "SILAC ratio Mpv17l2", "setting": "[4]; competitor 25 μM", "result": 1.8}, {"measurement": "SILAC ratio, Gstm1", "setting": "[5]; competitor 25 μM", "result": 1.4}, {"measurement": "SILAC ratio Mki67ip", "setting": "[6]; competitor 25 μM", "result": 1.0}, {"measurement": "SILAC ratio, Tmed10", "setting": "[7]; competitor 25 μM", "result": 1.0}, {"measurement": "SILAC ratio (AEA-DA competition)", "setting": "[8]; competitor 25 μM", "result": 0.7}]}
{"smiles": "CN1CCN(C(=O)c2c(-c3ccccc3)c3cc([N+](=O)[O-])ccc3n2C)CC1", "note": "[KML110, (1-Methyl-5-nitro-3-phenyl-1H-indol-2-yl)(4-methylpiperazin-1-yl)methanone]", "values": [{"measurement": "SILAC ratio Chgb", "setting": "[1]; competitor 25 μM", "result": 1.1}, {"measurement": "SILAC ratio, Prkar1a", "setting": "[2]; competitor 25 μM", "result": 1.6}, {"measurement": "SILAC ratio, Rab11b", "setting": "[3]; competitor 25 μM", "result": 1.5}, {"measurement": "SILAC ratio Mpv17l2", "setting": "[4]; competitor 25 μM", "result": 1.5}, {"measurement": "SILAC ratio, Gstm1", "setting": "[5]; competitor 25 μM", "result": 2.2}, {"measurement": "SILAC ratio Mki67ip", "setting": "[6]; competitor 25 μM", "result": 1.5}, {"measurement": "SILAC ratio, Tmed10", "setting": "[7]; competitor 25 μM", "result": 1.2}]}
{"smiles": "O=C(/C=C/c1cccnc1)NCCCCC1CCN(C(=O)c2ccccc2)CC1", "note": "[FK-866, reference compound]", "values": [{"measurement": "SILAC ratio Chgb", "setting": "[1]; competitor 25 μM", "result": 0.9}, {"measurement": "SILAC ratio, Prkar1a", "setting": "[2]; competitor 25 μM", "result": 1.5}, {"measurement": "SILAC ratio, Rab11b", "setting": "[3]; competitor 25 μM", "result": 1.2}, {"measurement": "SILAC ratio Mpv17l2", "setting": "[4]; competitor 25 μM", "result": 1.4}, {"measurement": "SILAC ratio, Gstm1", "setting": "[5]; competitor 25 μM", "result": 1.5}, {"measurement": "SILAC ratio Mki67ip", "setting": "[6]; competitor 25 μM", "result": 1.0}, {"measurement": "SILAC ratio, Tmed10", "setting": "[7]; competitor 25 μM", "result": 1.1}]}
{"smiles": "CN1CCN(C(=O)c2[nH]c3ccc([N+](=O)[O-])cc3c2-c2ccccc2)CC1", "note": "[MJN228, (4-Methylpiperazin-1-yl)(5-nitro-3-phenyl-1H-indol-2-yl)methanone]", "values": [{"measurement": "SILAC ratio Chgb", "setting": "[1]; competitor 10 μM", "result": 1.2}, {"measurement": "SILAC ratio Chgb", "setting": "[1]; competitor 25 μM", "result": 0.9}, {"measurement": "SILAC ratio Chgb", "setting": "[1]; competitor 50 μM", "result": 0.4}, {"measurement": "SILAC ratio Chgb", "setting": "[1]; competitor 100 μM", "result": 0.4}, {"measurement": "SILAC ratio, Prkar1a", "setting": "[2]; competitor 10 μM", "result": 1.9}, {"measurement": "SILAC ratio, Prkar1a", "setting": "[2]; competitor 25 μM", "result": 1.9}, {"measurement": "SILAC ratio, Prkar1a", "setting": "[2]; competitor 50 μM", "result": 2.1}, {"measurement": "SILAC ratio, Prkar1a", "setting": "[2]; competitor 100 μM", "result": 2.8}, {"measurement": "SILAC ratio, Rab11b", "setting": "[3]; competitor 10 μM", "result": 1.2}, {"measurement": "SILAC ratio, Rab11b", "setting": "[3]; competitor 25 μM", "result": 1.6}, {"measurement": "SILAC ratio, Rab11b", "setting": "[3]; competitor 50 μM", "result": 1.8}, {"measurement": "SILAC ratio, Rab11b", "setting": "[3]; competitor 100 μM", "result": 2.4}, {"measurement": "SILAC ratio Mpv17l2", "setting": "[4]; competitor 10 μM", "result": 1.1}, {"measurement": "SILAC ratio Mpv17l2", "setting": "[4]; competitor 25 μM", "result": 1.2}, {"measurement": "SILAC ratio Mpv17l2", "setting": "[4]; competitor 50 μM", "result": 1.0}, {"measurement": "SILAC ratio Mpv17l2", "setting": "[4]; competitor 100 μM", "result": 3.6}, {"measurement": "SILAC ratio, Gstm1", "setting": "[5]; competitor 10 μM", "result": 1.7}, {"measurement": "SILAC ratio, Gstm1", "setting": "[5]; competitor 25 μM", "result": 1.7}, {"measurement": "SILAC ratio, Gstm1", "setting": "[5]; competitor 50 μM", "result": 2.1}, {"measurement": "SILAC ratio, Gstm1", "setting": "[5]; competitor 100 μM", "result": 2.6}, {"measurement": "SILAC ratio Mki67ip", "setting": "[6]; competitor 10 μM", "result": 1.2}, {"measurement": "SILAC ratio Mki67ip", "setting": "[6]; competitor 25 μM", "result": 1.5}, {"measurement": "SILAC ratio Mki67ip", "setting": "[6]; competitor 50 μM", "result": 1.8}, {"measurement": "SILAC ratio Mki67ip", "setting": "[6]; competitor 100 μM", "result": 2.3}, {"measurement": "SILAC ratio, Tmed10", "setting": "[7]; competitor 10 μM", "result": 1.1}, {"measurement": "SILAC ratio, Tmed10", "setting": "[7]; competitor 25 μM", "result": 1.4}, {"measurement": "SILAC ratio, Tmed10", "setting": "[7]; competitor 50 μM", "result": 1.5}, {"measurement": "SILAC ratio, Tmed10", "setting": "[7]; competitor 100 μM", "result": 1.6}, {"measurement": "SILAC ratio (AEA-DA competition)", "setting": "[8]; competitor 10 μM", "result": 0.8}, {"measurement": "SILAC ratio (AEA-DA competition)", "setting": "[8]; competitor 25 μM", "result": 1.0}, {"measurement": "SILAC ratio (AEA-DA competition)", "setting": "[8]; competitor 50 μM", "result": 0.7}]}
